One data set concerns the target T1, IDH1 G97D (Homo sapiens, UniProt O75874, G97D).
T1 construct: Oligo nucleotides were designed to PCR out the coding region of IDH1 with NdeI at the 5′ end and XhoI at the 3′; Ser-Leu-Glu junction (stop codon changed to Ser, then Leu-Glu); made in house; host or cells: E. coli Rosetta
The experiment in a line: IDH1 G97D inhibition assay (NADPH/aKG, diaphorase/resazurin fluorescence readout). The class given is biochemical. Particulars: 50 minutes at room temperature. Here is the method:
Assays were conducted in a standard 384-well plate in a reaction volume of 76 uL assay buffer (150 mM NaCl, 10 mM MgCl2, 20 mM Tris pH 7.5, 0.05% bovine serum albumin, 2 mM beta-mercaptoethanol) as follows: To 25 uL of substrate mix (4 uM NADPH, 1 mM aKG), 1 uL of test compound in DMSO was added. The plate was centrifuged briefly, and then 25 ul of enzyme mix was added (0.1 ug/mL ICDH1 G97D) followed by a brief centrifugation and shake at 100 RPM. The reaction was incubated for 50 minutes at room temperature, then 25 ul of detection mix (30 uM resazurin, 36 ug/ml diaphorase) was added, and the mixture further incubated for 5 minutes at room temperature. The activity readout as a result of the conversion of resazurin to resorufin was detected by fluorescent spectroscopy at excitation 544 nm and emission 590 nm (c/o 590 nm).
(Alamar Blue is a resazurin reagent that responds to reducing activity.)

The subject of the next data set is glioblastoma multiforme. Particulars: persons newly diagnosed with glioblastoma multiforme; cited from earlier work.

Drawing on patent US8883438B2, “Method for diagnosing cell proliferation disorders having a neoactive mutation at residue 97 of isocitrate dehydrogenase 1” (Agios Pharmaceuticals, Inc., priority 2009, dated 2014), this text covers IC50 and tolerability for five compounds.

T1 sequence (O75874 whole entry G97D): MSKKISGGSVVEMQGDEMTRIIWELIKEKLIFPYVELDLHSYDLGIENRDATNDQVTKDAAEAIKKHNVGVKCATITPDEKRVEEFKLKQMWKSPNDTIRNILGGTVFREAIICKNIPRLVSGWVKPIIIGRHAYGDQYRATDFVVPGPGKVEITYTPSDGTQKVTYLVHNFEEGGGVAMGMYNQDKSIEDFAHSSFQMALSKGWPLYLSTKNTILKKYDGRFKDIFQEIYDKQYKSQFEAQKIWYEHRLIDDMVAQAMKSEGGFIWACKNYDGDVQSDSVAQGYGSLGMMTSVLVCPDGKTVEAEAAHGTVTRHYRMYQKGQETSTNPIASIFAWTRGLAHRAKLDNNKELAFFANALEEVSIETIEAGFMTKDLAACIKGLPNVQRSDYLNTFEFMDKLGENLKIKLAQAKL

Take `O=C1/C(=C/c2ccc(F)cc2)C(CSc2ccc(Cl)cc2)=NN1c1nc2ccccc2s1`: the IC50 (in general, the concentration that inhibits the measured activity by half) at IDH1 G97D lay in the range of 1 to 5 µM. On the same count and under the same terms, the figure for `N#C/C(=C\c1ccc(-c2cc([N+](=O)[O-])ccc2O)o1)c1nc2ccccc2[nH]1` is 1 to 5 µM; for `CCCCC1=NN2C(=N)/C(=C/c3ccc(-c4ccc([NH2+][O-])cc4Cl)o3)C(=O)N=C2S1` it is 1 to 5 µM. Regarding `O=C1NC(=S)S/C1=C\c1ccc(-c2ccc(N3CCOCC3)c([N+](=O)[O-])c2)o1`, at IDH1 G97D, the IC50 is 5 to 10 µM. On to `Cn1nnc2c(C(N)=O)ncn2c1=O` [temozolomide, Temozolomide], for which, in the data set with glioblastoma multiforme, the tolerability entry is “well tolerated”.
